Assay results as given in the supplement of paper PMC13380429.

Key:
Settings in all cases: 72 h
[1] = test system: U2OS; assay: drug sensitivity score (DSS) for viability; higher = more toxic; extreme values may be limits of the assay
[2] = test system: Calu-3; assay: as above
[3] = test system: HepG2; assay: as above
[4] = test system: Caco-2; assay: as above
[5] = test system: Vero E6; assay: as above
[6] = test system: U2OS; assay: cell viability relative to DMSO; higher = less toxic
[7] = test system: Calu-3; assay: as above
[8] = test system: HepG2; assay: as above
[9] = test system: Caco-2; assay: as above
[10] = test system: Vero E6; assay: as above
[11] = test system: U2OS; assay: relative viability EC50 (midpoint between 100% and the lowest measured viability); higher = less toxic
[12] = test system: Calu-3; assay: as above
[13] = test system: HepG2; assay: as above
[14] = test system: Caco-2; assay: as above
[15] = test system: Vero E6; assay: as above

| SMILES | drug sensitivity score [1] | drug sensitivity score [2] | drug sensitivity score [3] | drug sensitivity score [4] | drug sensitivity score [5] | cell viability ([6]; 1 nM) [%] | cell viability ([6]; 10 nM) [%] | cell viability ([6]; 100 nM) [%] | cell viability ([6]; 1000 nM) [%] | cell viability ([6]; 10000 nM) [%] | cell viability ([7]; 1 nM) [%] | cell viability ([7]; 10 nM) [%] | cell viability ([7]; 100 nM) [%] | cell viability ([7]; 1000 nM) [%] | cell viability ([7]; 10000 nM) [%] | cell viability ([8]; 1 nM) [%] | cell viability ([8]; 10 nM) [%] | cell viability ([8]; 100 nM) [%] | cell viability ([8]; 1000 nM) [%] | cell viability ([8]; 10000 nM) [%] | cell viability ([9]; 1 nM) [%] | cell viability ([9]; 10 nM) [%] | cell viability ([9]; 100 nM) [%] | cell viability ([9]; 1000 nM) [%] | cell viability ([9]; 10000 nM) [%] | cell viability ([10]; 1 nM) [%] | cell viability ([10]; 10 nM) [%] | cell viability ([10]; 100 nM) [%] | cell viability ([10]; 1000 nM) [%] | cell viability ([10]; 10000 nM) [%] | relative viability EC50 [11] [µM] | relative viability EC50 [12] [µM] | relative viability EC50 [13] [µM] | relative viability EC50 [14] [µM] | relative viability EC50 [15] [µM] |
| --- | --- | --- | --- | --- | --- | --- | --- | --- | --- | --- | --- | --- | --- | --- | --- | --- | --- | --- | --- | --- | --- | --- | --- | --- | --- | --- | --- | --- | --- | --- | --- | --- | --- | --- | --- |
| OC[C@H]1O[C@@H](O[C@@H]2[C@H](O)[C@@H](O)[C@H](O[C@H]3[C@H](O)[C@@H](O)C(O)O[C@@H]3CO)O[C@@H]2CO)[C@H](O)[C@@H](O)[C@H]1O (stereo not given in full) [4-galactosyllactose] | 0 | 0 | 0 | 2.5 | 0 | 103 | 96.4 | 102 | 94.8 | 101 | 102 | 99.3 | 98.2 | 93.3 | 101 | 111 | 113 | 101 | 102 | 98.3 | 118 | 96.6 | 123 | 78.8 | 91.7 | 97.3 | 105 | 103 | 101 | 99.2 | > 10 | > 10 | > 10 | > 10 | > 10 |
| CCN1C(C)(C)CC(Oc2ccc(C(=O)Nc3ccc(NC(=O)Nc4cc(C(C)(C)C)on4)cc3)nc2)CC1(C)C [AC-710] | 0 | 0.2 | 0 | 0 | 0 | 98.9 | 97 | 98.9 | 99.9 | 94.3 | 108 | 105 | 97.4 | 89.4 | 94 | 100 | 97.7 | 94.1 | 105 | 87.3 | 100 | 89.4 | 100 | 94.4 | 88.2 | 101 | 106 | 99.9 | 104 | 96.8 | > 10 | > 10 | > 10 | > 10 | > 10 |
| OB1OCc2cc(Cl)ccc21 [AN2718] | 0 | 0 | 0 | 0.4 | 0 | 101 | 98 | 96.1 | 98.2 | 98.7 | 100 | 89 | 90.6 | 102 | 92.8 | 120 | 107 | 107 | 94 | 108 | 93.8 | 102 | 82.2 | 98.8 | 82.7 | 101 | 99.8 | 94.7 | 96.9 | 103 | > 10 | > 10 | > 10 | > 10 | > 10 |
| NC(=O)c1cn([C@@H]2O[C@H](CO)[C@@H](O)[C@H]2O)c2ncnc(N)c2c1=O [API-1] | 5.9 | 10.6 | 13.6 | 5.6 | 4 | 95.7 | 98.8 | 91.1 | 97.5 | 0.9 | 97 | 107 | 87.5 | 52.7 | 20.7 | 106 | 97.9 | 84.9 | 39 | 4.5 | 92.3 | 92.9 | 85 | 80.1 | 36.4 | 97 | 89.7 | 94.8 | 93 | 47.3 | 2.98 | 0.639 | 0.544 | 1.53 | 2.1 |
| N[C@@H]1CCCN(c2c(/C=C3\SC(=O)NC3=O)cccc2-c2ccccc2)C1 [AZD1208] | 0 | 0 | 1.2 | 0 | 0 | 97.1 | 88.9 | 93.3 | 95.6 | 96.7 | 105 | 94.4 | 92.4 | 86.6 | 99.8 | 92.6 | 104 | 93.5 | 89.8 | 80 | 103 | 97.5 | 109 | 95.3 | 98.6 | 98.3 | 99.9 | 87.9 | 91.8 | 96.2 | > 10 | > 10 | > 10 | > 10 | > 10 |
